Results published in patent US10392404B2, “Compounds and compositions as kinase inhibitors” (NOVARTIS AG, priority 2014, dated 2019).

What was measured:
C-RAF = molecular target: T1, C-RAF (Homo sapiens, UniProt P04049, Y340E/Y341E); assay: In vitro Raf activity determination (Alpha Screen, biotinylated kinase-dead MEK1 substrate), C-Raf; assay type: biochemical; conditions: c-Raf approximately 4 nM; ATP 1 μM; pre-incubation 60 minutes; reaction 1 hour at room temperature
T1 construct: His tag (implied by nickel chromatography) (cleaved yes); StrepII tag (cleaved yes); made in house; host or cells: Sf9 insect cells (baculovirus), CRAF and h14-3-3 zeta co-expressed; MEK1 substrate from E. coli
T1 sequence (P04049 whole entry Y340E/Y341E): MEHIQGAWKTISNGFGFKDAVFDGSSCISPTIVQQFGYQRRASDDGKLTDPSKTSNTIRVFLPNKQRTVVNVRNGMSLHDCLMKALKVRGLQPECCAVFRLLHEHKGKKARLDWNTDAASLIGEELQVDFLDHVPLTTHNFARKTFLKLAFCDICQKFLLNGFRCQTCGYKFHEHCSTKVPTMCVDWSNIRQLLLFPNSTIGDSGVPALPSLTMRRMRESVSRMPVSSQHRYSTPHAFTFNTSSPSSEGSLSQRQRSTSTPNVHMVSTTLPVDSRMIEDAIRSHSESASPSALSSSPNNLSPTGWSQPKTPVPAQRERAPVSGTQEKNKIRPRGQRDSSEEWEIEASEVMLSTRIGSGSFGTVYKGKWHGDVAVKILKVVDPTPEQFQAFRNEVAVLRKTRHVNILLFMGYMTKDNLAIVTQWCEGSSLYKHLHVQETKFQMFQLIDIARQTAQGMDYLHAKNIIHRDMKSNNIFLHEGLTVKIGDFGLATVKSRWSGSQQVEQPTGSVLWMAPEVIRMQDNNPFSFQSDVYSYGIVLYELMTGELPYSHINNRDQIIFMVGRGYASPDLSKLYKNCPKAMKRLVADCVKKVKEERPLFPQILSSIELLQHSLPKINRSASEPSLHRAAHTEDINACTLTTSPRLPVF
T1 sequence (P63104 whole entry partner): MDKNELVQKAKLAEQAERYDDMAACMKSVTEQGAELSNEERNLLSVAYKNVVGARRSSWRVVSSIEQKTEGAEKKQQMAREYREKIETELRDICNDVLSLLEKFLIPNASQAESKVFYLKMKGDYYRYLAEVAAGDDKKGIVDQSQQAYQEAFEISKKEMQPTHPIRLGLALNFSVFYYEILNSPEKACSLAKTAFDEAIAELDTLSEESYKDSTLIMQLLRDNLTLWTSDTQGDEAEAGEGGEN
In short: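 Full-length C-Raf carrying Y340E/Y341E, co-expressed with 14-3-3ζ in Sf9 cells, at approximately 4 nM, with approximately 10 nM biotinylated kinase-dead MEK1 (K97R) and 1 μM ATP, pH 7.5. Compound preincubated 60 min, reaction 1 hour at room temperature. Phospho-MEK read by AlphaScreen; IC50 by non-linear regression.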

b-Raf (V600E) = molecular target: T2, b-Raf (V600E) (Homo sapiens, UniProt P15056, V600E); assay: In vitro Raf activity determination (Alpha Screen, biotinylated kinase-dead MEK1 substrate), B-Raf; assay type: biochemical; conditions: b-Raf (V600E) approximately 4 pM; ATP 10 μM; pre-incubation 60 minutes; reaction 3 hours at room temperature
T2 construct: made in house
T2 sequence (P15056 whole entry V600E): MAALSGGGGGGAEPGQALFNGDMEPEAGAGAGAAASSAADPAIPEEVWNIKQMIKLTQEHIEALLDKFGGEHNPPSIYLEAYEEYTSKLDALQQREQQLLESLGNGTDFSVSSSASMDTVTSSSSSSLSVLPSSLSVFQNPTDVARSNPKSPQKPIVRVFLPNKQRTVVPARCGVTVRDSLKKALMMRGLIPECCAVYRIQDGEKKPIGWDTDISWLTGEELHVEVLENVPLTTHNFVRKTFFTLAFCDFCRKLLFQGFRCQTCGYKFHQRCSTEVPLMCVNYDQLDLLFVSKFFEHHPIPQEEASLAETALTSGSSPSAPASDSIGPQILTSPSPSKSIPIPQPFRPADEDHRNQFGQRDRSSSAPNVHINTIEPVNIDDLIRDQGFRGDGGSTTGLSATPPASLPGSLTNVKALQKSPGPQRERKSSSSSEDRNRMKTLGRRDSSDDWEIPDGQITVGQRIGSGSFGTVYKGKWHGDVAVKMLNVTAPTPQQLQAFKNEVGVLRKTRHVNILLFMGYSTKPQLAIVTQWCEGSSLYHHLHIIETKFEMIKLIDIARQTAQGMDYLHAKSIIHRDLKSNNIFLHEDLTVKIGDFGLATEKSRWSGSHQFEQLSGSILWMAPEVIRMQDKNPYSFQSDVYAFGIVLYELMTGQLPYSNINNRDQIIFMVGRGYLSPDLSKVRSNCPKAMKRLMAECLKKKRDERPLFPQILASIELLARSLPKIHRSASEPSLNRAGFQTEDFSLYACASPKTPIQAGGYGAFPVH
In short: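 Activated b-Raf(V600E) (~4 pM) pre-incubated 60 min with compound and biotinylated kinase-dead (K97R) MEK1 (~10 nM), then reacted 3 h at room temperature with 10 μM ATP in 50 mM Tris pH 7.5, 15 mM MgCl2, 0.01% BSA, 1 mM DTT. Phospho-MEK detected by AlphaScreen; IC50 by non-linear regression.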

Structure (SMILES) | IC50 (C-RAF) [pM] | IC50 (b-Raf (V600E)) [pM]
Cc1ccc(NC(=O)c2ccnc(S(C)(=O)=O)c2)cc1-c1cnc(N2CCOCC2)c(C#N)c1 [Example 156, N-(3-(5-cyano-6-morpholinopyridin-3-yl)-4-methylphenyl)-2-(methylsulfonyl) isonicotinamide] | 59.7 | 350
Cc1ncc(NC(=O)c2ccnc(C(C)(C)O)c2)cc1-c1cnc(N2CCOCC2)c(C#N)c1 [Example 166, N-(5′-cyano-2-methyl-6′-morpholino-[3,3′-bipyridin]-5-yl)-2-(2-hydroxypropan-2-yl)isonicotinamide] | 1590 | 6910
Cc1ncc(NC(=O)c2ccnc(C(C)(C)O)c2)cc1-c1cnc(C2CCOCC2)c(C#N)c1 [Example 167, N-(5′-cyano-2-methyl-6′-(tetrahydro-2H-pyran-4-yl)-[3,3′-bipyridin]-5-yl)-2-(2-hydroxypropan-2-yl)isonicotinamide] | 6860 | 33000
Cc1ccc(NC(=O)c2ccnc(C(C)(C)O)c2)cc1-c1cnc(NC2CCOCC2)c(C#N)c1 [Example 168, N-(3-(5-cyano-6-((tetrahydro-2H-pyran-4-yl)amino)pyridin-3-yl)-4-methylphenyl)-2-(2-hydroxypropan-2-yl)isonicotinamide] | 487 | 1440
Cc1ccc(NC(=O)c2ccnc(C(F)F)c2)cc1-c1cnc(NC2CCOCC2)c(C#N)c1 [Example 169, N-(3-(5-cyano-6-((tetrahydro-2H-pyran-4-yl)amino)pyridin-3-yl)-4-methylphenyl)-2-(difluoromethyl) isonicotinamide] | 154 | 507
Cc1ncc(NC(=O)c2ccnc(C(C)(C)O)c2)cc1-c1cnc(NC2CCOCC2)c(C#N)c1 [Example 170, N-(5′-cyano-2-methyl-6′-((tetrahydro-2H-pyran-4-yl)amino)-[3,3′-bipyridin]-5-yl)-2-(2-hydroxypropan-2-yl)isonicotinamide] | 3160 | 12100
Cc1ncc(NC(=O)c2ccnc(C(F)F)c2)cc1-c1cnc(NC2CCOCC2)c(C#N)c1 [Example 171, N-(5′-cyano-2-methyl-6′-((tetrahydro-2H-pyran-4-yl)amino)-[3,3′-bipyridin]-5-yl)-2-(difluoromethyl) isonicotinamide] | 925 | 4180
Cc1ncc(NC(=O)c2cccc(C(F)F)c2)cc1-c1cnc(NC2CCOCC2)c(C#N)c1 [Example 172, N-(5′-cyano-2-methyl-6′-((tetrahydro-2H-pyran-4-yl)amino)-[3,3′-bipyridin]-5-yl)-3-(difluoromethyl) benzamide] | 356 | 1090
Cc1ncc(NC(=O)c2ccnc(C(F)(F)F)c2)cc1-c1cnc(NC2CCOCC2)c(C#N)c1 [Example 173, N-(5′-cyano-2-methyl-6′-((tetrahydro-2H-pyran-4-yl)amino)-[3,3′-bipyridin]-5-yl)-2-(trifluoromethyl) isonicotinamide] | 478 | 1630
Cc1ccc(NC(=O)c2cnnc(C(F)(F)F)c2)cc1-c1cnc(NC2CCOCC2)c(C#N)c1 [Example 174, N-(3-(5-cyano-6-((tetrahydro-2H-pyran-4-yl)amino)pyridin-3-yl)-4-methylphenyl)-6-(trifluoromethyl) pyridazine-4-carboxamide] | 177 | 576
Cc1ncc(NC(=O)c2cnnc(C(F)(F)F)c2)cc1-c1cnc(NC2CCOCC2)c(C#N)c1 [Example 175, N-(5′-cyano-2-methyl-6′-((tetrahydro-2H-pyran-4-yl)amino)-[3,3′-bipyridin]-5-yl)-6-(trifluoromethyl) pyridazine-4-carboxamide] | 1250 | 4740
COCCNc1ncc(-c2cc(NC(=O)c3ccnc(C(C)(C)C#N)c3)ccc2C)cc1C#N [Example 176, N-(3-(5-cyano-6-((2-methoxyethyl)amino)pyridin-3-yl)-4-methylphenyl)-2-(2-cyanopropan-2-yl)isonicotinamide] | 398 | 1580
COCCNc1ncc(-c2cc(NC(=O)c3ccnc(C4(C#N)CC4)c3)ccc2C)cc1C#N [Example 177, N-(3-(5-cyano-6-((2-methoxyethyl)amino)pyridin-3-yl)-4-methylphenyl)-2-(1-cyanocyclopropyl) isonicotinamide] | 169 | 940
COCCNc1ncc(-c2cc(NC(=O)c3ccnc(C(F)F)c3)ccc2C)cc1C#N [Example 178, N-(3-(5-cyano-6-((2-methoxyethyl)amino)pyridin-3-yl)-4-methylphenyl)-2-(difluoromethyl) isonicotinamide] | 192 | 1510

Second part, the compound after the results:

IC50 (C-RAF) [pM] | IC50 (b-Raf (V600E)) [pM] | Structure (SMILES)
158 | 591 | Cc1ccc(NC(=O)c2ccnc(C(C)C)c2)cc1-c1cnc(N2CCNCC2)c(C#N)c1 [Example 150, N-(3-(5-cyano-6-(piperazin-1-yl)pyridin-3-yl)-4-methylphenyl)-2-isopropyl-isonicotinamide]
353 | 1410 | Cc1ccc(NC(=O)c2ccnc(C(C)(C)C#N)c2)cc1-c1cnc(N2CCNCC2)c(C#N)c1 [Example 151, N-(3-(5-cyano-6-(piperazin-1-yl)pyridin-3-yl)-4-methylphenyl)-2-(2-cyanopropan-2-yl)isonicotinamide]
702 | 5680 | Cc1ccc(NC(=O)c2ccnc(S(C)(=O)=O)c2)cc1-c1cnc(N2CCNCC2)c(C#N)c1 [Example 152, N-(3-(5-cyano-6-(piperazin-1-yl)pyridin-3-yl)-4-methylphenyl)-2-(methylsulfonyl) isonicotinamide]
150 | 700 | Cc1ccc(NC(=O)c2ccnc(C(F)(F)F)c2)cc1-c1cnc(N2CCNCC2)c(C#N)c1 [Example 153, N-(3-(5-cyano-6-(piperazin-1-yl)pyridin-3-yl)-4-methylphenyl)-2-(trifluoromethyl) isonicotinamide]
67.5 | 342 | Cc1ccc(NC(=O)c2ccnc(C(F)F)c2)cc1-c1cnc(N2CCOCC2)c(C#N)c1 [Example 154, N-(3-(5-cyano-6-morpholinopyridin-3-yl)-4-methylphenyl)-2-(difluoromethyl) isonicotinamide]
39.5 | 263 | Cc1ccc(NC(=O)c2ccnc(C3CC3)c2)cc1-c1cnc(N2CCOCC2)c(C#N)c1 [Example 155, N-(3-(5-cyano-6-morpholinopyridin-3-yl)-4-methylphenyl)-2-cyclopropyl-isonicotinamide]
55.9 | 304 | Cc1ccc(NC(=O)c2cccc(S(C)(=O)=O)c2)cc1-c1cnc(N2CCOCC2)c(C#N)c1 [Example 157, N-(3-(5-cyano-6-morpholinopyridin-3-yl)-4-methylphenyl)-(methylsulfonyl) benzamide]
199 | 1090 | Cc1ccc(NC(=O)c2ccnc(C3CC3)c2)cc1-c1cnc(N2CCNCC2)c(C#N)c1 [Example 158, N-(3-(5-cyano-6-(piperazin-1-yl)pyridin-3-yl)-4-methylphenyl)-2-cyclopropyl isonicotinamide]
197 | 1490 | Cc1ccc(NC(=O)c2cccc(S(C)(=O)=O)c2)cc1-c1cnc(N2CCNCC2)c(C#N)c1 [Example 159, N-(3-(5-cyano-6-(piperazin-1-yl)pyridin-3-yl)-4-methylphenyl)-3-(methylsulfonyl) benzamide]
157 | 1590 | Cc1ccc(NC(=O)c2ccnc(C(F)F)c2)cc1-c1cnc(N2CCNCC2)c(C#N)c1 [Example 160, N-(3-(5-cyano-6-(piperazin-1-yl)pyridin-3-yl)-4-methylphenyl)-2-(difluoromethyl) isonicotinamide]
153 | 577 | Cc1ccc(NC(=O)c2ccnc(C(C)(F)F)c2)cc1-c1cnc(N2CCNCC2)c(C#N)c1 [Example 161, N-(3-(5-cyano-6-(piperazin-1-yl)pyridin-3-yl)-4-methylphenyl)-2-(1,1-difluoroethyl) isonicotinamide]
522 | 2480 | CCn1cc(C(=O)Nc2ccc(C)c(-c3cnc(N4CCNCC4)c(C#N)c3)c2)cc(C(F)(F)F)c1=O [Example 162, N-(3-(5-cyano-6-(piperazin-1-yl)pyridin-3-yl)-4-methylphenyl)-1-ethyl-6-oxo-5-(trifluoromethyl)-1,6-dihydropyridine-3-carboxamide]
125 | 901 | Cc1ccc(NC(=O)c2cccc(C(F)F)c2)cc1-c1cnc(N2CCNCC2)c(C#N)c1 [Example 163, N-(3-(5-cyano-6-(piperazin-1-yl)pyridin-3-yl)-4-methylphenyl)-3-(difluoromethyl) benzamide]
222 | 683 | Cc1ccc(NC(=O)c2ccnc(C(C)(C)F)c2)cc1-c1cnc(N2CCNCC2)c(C#N)c1 [Example 164, N-(3-(5-cyano-6-(piperazin-1-yl)pyridin-3-yl)-4-methylphenyl)-2-(2-fluoropropan-2-yl)isonicotinamide]
356 | 1240 | Cc1ccc(NC(=O)c2ccnc(C(C)(C)O)c2)cc1-c1cnc(N2CCOCC2)c(C#N)c1 [Example 165, N-(3-(5-cyano-6-morpholinopyridin-3-yl)-4-methylphenyl)-2-(2-hydroxypropan-2-yl)isonicotinamide]
